The values that follow come from PMC6691788, “Design and synthesis of phthalazine-based compounds as potent anticancer agents with potential antiangiogenic activity via VEGFR-2 inhibition” (Journal of Enzyme Inhibition and Medicinal Chemistry, 2019).

Assay [1] deals with T1, VEGFR-2 tyrosine kinase (Homo sapiens, UniProt P35968).
T1 construct: purchased BPS Bioscience 40301
The experiment in a line: In vitro VEGFR-2 tyrosine kinase assay (BPS Bioscience). In kind it is biochemical. The settings on record: read-out: VEGFR-2 % inhibition; 10 μM concentration. The method, then:
The VEGFR tyrosine kinase assays were performed at BPS Bioscience (www.bpsbioscience.com). All the synthesised compounds representing the six series were evaluated for their ability to inhibit VEGFR-2 tyrosine kinase at single dose of 10 µM.
The VEGFR tyrosine kinase activity at single dose concentration of 10 μM was carried out by BPS Bioscience (www.bpsbioscience.com). VEGFR (BPS#40301) served as the enzyme source and Poly (Glu, Tyr) sodium salt, (4:1, Glu:Tyr) (Sigma#P7244) served as the standardized substrate & Kinase-Glo Plus Luminescence kinase assay kit (Promega#V3772). The IC50 determination was carried out where quality control testing is routinely performed on each of the targets to insure compliance to acceptable standards. ^33P-ATP was purchased from Perkin Elmer and ADP-Glo^TM was purchased from Promega. All other materials were of standard laboratory grade.
The VEGFR tyrosine kinase activity was performed using Kinase-Glo Plus luminescence kinase assay kit (Promega). It measures kinase activity by quantitating the amount of ATP remaining in solution following a kinase reaction. The luminescent signal from the assay is correlated with the amount of ATP present and is inversely correlated with the amount of kinase activity. The compounds were diluted to 100 μM in 10% DMSO and […] of the dilution was added to a […] reaction so that the final concentration of DMSO is 1% in all of reactions. All of the enzymatic reactions were conducted at 30 °C for 40 min. The 50 μl reaction mixture contains […], pH 7.4, […], 0.1 mg/ml BSA, 0.2 mg/ml Poly (Glu, Tyr) substrate, 10 μM ATP and VEGFR. After the enzymatic reaction, […] of Kinase-GloPlus Luminescence kinase assay solution (Promega) was added to each reaction and incubate the plate for 5 min at room temperature. Luminescence signal was measured using a BioTek Synergy 2 microplate reader. The protein kinase assays used to determine IC50 value were performed using ADP-GloTM assay kit from Promega which measures the generation of ADP by the protein kinase. Generation of ADP by the protein kinase reaction leads to an increase in luminescence signal in the presence of ADP-GloTM assay kit. The assay was started by incubating the reaction mixture in a 96-well plate at 30 °C for 30 min. After the 30 min incubation period, the assay was terminated by the addition of […] of ADP-GloTM Reagent (Promega). The 96 well plate was shaken and then incubated for 40 min at ambient temperature. […] of Kinase detection reagent was added, the 96-well reaction plate was then read using the ADP-Glo Luminescences Protocol on a GloMax plate reader (Promega: Catalog #E7031). Blank control was set up that included all the assay components except the addition of appropriate substrate (replace with equal volume of kinase assay buffer). The corrected activity for each protein kinase target was determined by removing the blank control value.
VEGFR activity assays were performed in duplicate at each concentration. The luminescence data were analyzed using the computer software, Graphpad Prism. The difference between luminescence intensities in the absence of VEGFR (Lut) and in the presence of VEGFR (Luc) was defined as 100% activity (Lut - Luc). […] IC50 determination for inhibitor against VEGFR was estimated by generating a graph of log inhibitor vs normalized response with variable using the Prism software.

For assay [2], the system named is HT29. The experiment in a line: NCI 60 cell panel SRB screen. In kind it is cell-based. The settings on record: Homo sapiens, HT-29; for activity at 10 µM: HT29, single dose 10 μM, read-out: percent cell growth promotion; for GI50 / IC (TGI) / CC50: HT29, 5 log dose; for CC50: 48 h, read-out: LC50 (the source's name).
Assay [3] deals with full NCI 60 cell panel. The experiment in a line: NCI 60 cell panel SRB screen, whole panel. In kind it is cell-based, human. As to conditions: for activity at 10 µM / inhibition at 10 µM: Homo sapiens, 60 cell; for activity at 10 µM: mean over the panel, single dose 10 μM, read-out: Mean percent cell growth promotion; for cell growth inhibition, in words / inhibition at 10 µM: single dose 10 µM. From the text: Aiming to evaluate the general antitumour activity of the synthesised phthalazines, the structures of the final compounds were submitted to National Cancer Institute “NCI” (www.dtp.nci.nih.gov), Bethesda, Maryland, USA. In vitro NCI anticancer screening involves two-stage process, the first stage started with the evaluation of the selected candidates against the full NCI 60 cell lines panel representing leukaemia, non-small cell lung cancer, melanoma, colon, CNS, breast, ovarian, renal and prostate cancers at a single dose of 10 µM. NCI selection is based on degree of structure variation and application of computer modelling techniques to prioritise compounds based on their ability to add diversity to the NCI small molecule compound collection.
Eight compounds (6b, 6e, 7b, 13a, 13c, 16a, 16d and 17a) were selected by NCI for further 5 log dose screening against full NCI 60 cell panel. All the 60 cell lines, representing nine tumour subpanels (leukaemia, non-small cell lung cancer, colon cancer, CNS cancer, prostate cancer, melanoma, ovarian cancer, renal cancer and breast cancer) which were incubated at five different concentrations (0.01, 0.1, 1, 10 and 100 µM) of each of the test compounds. The outcomes were used to create log concentration vs % growth inhibition curves, then three response parameters (GI50, TGI and LC50) were calculated for each cell line, (Tables S4 and S5 in Supplementary material).
The human tumor cell lines of the cancer-screening panel were grown in RPMI 1640 medium containing 5% fetal bovine serum and […] L-glutamine. For a typical screening experiment, cells are inoculated into 96 well microtiter plates in 100 ml at plating densities ranging from 5000 to 40,000 cells/well depending on the doubling time of individual cell lines. After cell inoculation, the microtiter plates are incubated at 37 °C, 5% CO2, 95% air and 100%
relative humidity for 24 h prior to addition of experimental drugs. After 24 h, two plates of each cell line are fixed in situ with TCA, to represent a measurement of the cell population for each cell line at the time of drug addition (Tz). Experimental drugs are dissolved in dimethyl sulfoxide at 400-fold the desired final maximum test concentration and stored frozen prior to use. At the time of drug addition, an aliquot of frozen concentrate is thawed and diluted to twice the desired final maximum test concentration with complete medium containing […] Gentamicin. Additional four, 10-fold or ½log serial dilutions are made to provide a total of five drug concentrations plus control. Aliquots of […] of these different drug dilutions are added to the appropriate microtiter wells already containing 100 ml of medium, resulting in the required final drug concentrations. Following drug addition, the plates are incubated for an additional 48 h at 37 °C, 5% CO2, 95% air, and 100% relative humidity. For adherent cells, the assay is terminated by the addition of cold TCA. Cells are fixed in situ by the gentle addition of […] of cold 50% (w/v) TCA (final concentration,10% TCA) and incubated for 60 min at 4 °C. The supernatant is discarded, and the plates are washed five times with tap water and air dried. Sulforhodamine B (SRB) solution (100 ml) at 0.4% (w/v) in 1% acetic acid is added to each well, and plates are incubated for 10 min at room temperature. After staining, unbound dye is removed by washing five times with 1% acetic acid and the plates are air dried. Bound stain is subsequently dissolved with 10 μM trizma base, and the absorbance is read on an automated plate reader at a wavelength of 515 nm. For suspension cells, the methodology is the same except that the assay is terminated by fixing settled cells at the bottom of the wells by gently adding […] of 80% TCA (final concentration, 16% TCA). […]

Setting [4] is: read-out: cell growth inhibition against various cell lines.

Where two headings read alike, the source gives them in different places.

T1 sequence (P35968 20-1356): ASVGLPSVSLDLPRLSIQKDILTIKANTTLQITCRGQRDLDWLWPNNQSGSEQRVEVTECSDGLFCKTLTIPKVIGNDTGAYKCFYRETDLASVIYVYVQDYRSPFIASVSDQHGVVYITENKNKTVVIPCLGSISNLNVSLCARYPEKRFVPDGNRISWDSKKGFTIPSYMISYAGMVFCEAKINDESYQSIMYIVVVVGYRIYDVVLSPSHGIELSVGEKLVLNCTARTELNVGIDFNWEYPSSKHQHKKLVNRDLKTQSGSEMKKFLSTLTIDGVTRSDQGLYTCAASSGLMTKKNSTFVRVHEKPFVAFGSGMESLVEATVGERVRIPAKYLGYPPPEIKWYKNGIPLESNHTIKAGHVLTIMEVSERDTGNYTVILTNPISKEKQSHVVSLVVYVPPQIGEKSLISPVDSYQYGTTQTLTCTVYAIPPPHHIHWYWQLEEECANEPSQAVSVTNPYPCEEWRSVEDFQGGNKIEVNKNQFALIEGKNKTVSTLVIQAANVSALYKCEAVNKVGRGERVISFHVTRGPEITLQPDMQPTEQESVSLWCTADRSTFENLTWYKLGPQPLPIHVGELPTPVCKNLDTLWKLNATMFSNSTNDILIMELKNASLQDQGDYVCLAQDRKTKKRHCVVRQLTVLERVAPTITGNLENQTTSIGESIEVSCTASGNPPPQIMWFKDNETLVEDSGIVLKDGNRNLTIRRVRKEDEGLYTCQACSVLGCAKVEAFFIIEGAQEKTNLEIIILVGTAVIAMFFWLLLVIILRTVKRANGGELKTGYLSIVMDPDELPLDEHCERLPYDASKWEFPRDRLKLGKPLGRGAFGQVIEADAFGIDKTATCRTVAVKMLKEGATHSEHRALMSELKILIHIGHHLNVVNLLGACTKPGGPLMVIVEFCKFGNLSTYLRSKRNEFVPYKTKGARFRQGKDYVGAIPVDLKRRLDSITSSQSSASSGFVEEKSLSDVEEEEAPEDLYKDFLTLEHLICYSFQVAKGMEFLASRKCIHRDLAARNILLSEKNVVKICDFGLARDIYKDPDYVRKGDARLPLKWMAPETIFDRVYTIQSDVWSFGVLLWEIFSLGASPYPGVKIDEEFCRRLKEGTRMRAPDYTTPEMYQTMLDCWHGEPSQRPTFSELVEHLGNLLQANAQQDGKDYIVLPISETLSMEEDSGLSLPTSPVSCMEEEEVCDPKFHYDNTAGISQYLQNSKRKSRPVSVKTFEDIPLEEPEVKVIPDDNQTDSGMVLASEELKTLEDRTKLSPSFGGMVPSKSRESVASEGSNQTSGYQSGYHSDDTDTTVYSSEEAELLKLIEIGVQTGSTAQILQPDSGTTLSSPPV

What is called inhibition is the drop in the measured response relative to a control, in per cent. Consider `O=C(Nc1ccc(Nc2nncc3ccccc23)cc1)c1ccc(Cl)cc1` [Compound 5b, 4-Chloro-N-(4-(phthalazin-1-ylamino)phenyl)benzamide], for which the inhibition at 10 µM in assay [1] amounted to 8%. Further, the activity at 10 µM in assay [2] amounted to 104%. In addition, in assay [3], the activity at 10 µM worked out at 101%; the “cell growth inhibition, in words” value was “Neither of the biarylamides (5b, and 5d) nor the piperazines (8a, 8d, 8f, 8g, 8h and 8i) showed any significant cell line growth inhibition”.

As to `Cc1nnc(Nc2ccc(NC(=O)c3ccc(Cl)cc3)cc2)c2ccccc12` [Compound 5d, 4-Chloro-N-(4–(4-methylphthalazin-1-ylamino)phenyl)benzamide], the inhibition at 10 µM in assay [1] came out at 15%. Further, the activity at 10 µM in assay [2] turned out to be 94.3%. Besides, in assay [3], the activity at 10 µM turned out to be 93%; the “cell growth inhibition, in words” value is “Neither of the biarylamides (5b, and 5d) nor the piperazines (8a, 8d, 8f, 8g, 8h and 8i) showed any significant cell line growth inhibition”.

The term GI50 denotes the concentration giving 50% growth inhibition. Low values mean greater sensitivity of the cells, high ones lower sensitivity of the cells. As to `O=C(Nc1ccc(Cl)cc1)Nc1ccc(Nc2nncc3ccccc23)cc1` [Compound 6b, 1–(4-Chlorophenyl)-3–(4-(phthalazin-1-ylamino)phenyl)urea], the inhibition at 10 µM in assay [1] came to 20%. In assay [2], the GI50 was determined as 2.65 µM, the IC (TGI) was found to be 14.1 µM, the CC50 was found to be 60 µM and the activity at 10 µM amounted to 32.4%. The activity at 10 µM in assay [3] was determined as 25%. The inhibition at 10 µM in assay [3] (setting [4]) is greater than 90%.

On to `Cc1nnc(Nc2ccc(NC(=O)Nc3ccc(Cl)cc3)cc2)c2ccccc12` [Compound 6e, 1–(4-Chlorophenyl)-3–(4-(4-methylphthalazin-1-ylamino)phenyl)urea], for which the inhibition at 10 µM in assay [1] came to 19%. In assay [2], the GI50 was found to be 1.78 µM, the IC (TGI) was 3.67 µM, the CC50 came out at 7.56 µM and the activity at 10 µM is 2.24%. Moreover, in assay [3], the activity at 10 µM turned out to be 23.2% and the “cell growth inhibition, in words” value was “lethal effect (above 100% inhibition) against several leukaemia, melanoma, renal cancer cell lines”. Besides, the inhibition at 10 µM in assay [3] (setting [4]) is greater than 90%.

With `O=C(Nc1ccc(Cl)cc1)Nc1ccc(Oc2nncc3ccccc23)cc1` [Compound 7b, 1–(4-Chlorophenyl)-3–(4-(phthalazin-1-yloxy)phenyl)urea], the inhibition at 10 µM in assay [1] is 13%. Also, in assay [2], it took 0.46 µM to inhibit growth by half (GI50), the IC (TGI) stood at 2.39 µM, the CC50 is greater than 100 µM and the activity at 10 µM turned out to be 0.52%. For the same compound, the activity at 10 µM in assay [3] is -6.99%. Also, in assay [3] (full panel, read-out: mean growth inhibition), the inhibition at 10 µM was 107%.

As to `Cc1nnc(Oc2ccc(NC(=O)Nc3ccc(Cl)cc3)cc2)c2ccccc12` [Compound 7e, 1–(4-Chlorophenyl)-3–(4-(4-methylphthalazin-1-yloxy)phenyl)urea], the inhibition at 10 µM in assay [1] stood at 14%. Also, the activity at 10 µM in assay [2] stood at 77%. Moreover, in assay [3], the activity at 10 µM stood at 72.8%; the “cell growth inhibition, in words” value was “moderate cell growth inhibition against leukaemia and breast cell lines”.

As for `CCOC(=O)N1CCN(c2nncc3ccccc23)CC1` [Compound 8a, Ethyl 4-(phthalazin-1-yl)piperazine-1-carboxylate], the inhibition at 10 µM in assay [1] was 13%. Also, the activity at 10 µM in assay [2] was 106%. Besides, in assay [3], the activity at 10 µM turned out to be 105%; the “cell growth inhibition, in words” value was “nor the piperazines (8a, 8d, 8f, 8g, 8h and 8i) showed any significant cell line growth inhibition”.

Consider `c1ccc(N2CCN(c3nncc4ccccc34)CC2)nc1` [Compound 8d, 1–(4-(Pyridin-2-yl)piperazin-1-yl)phthalazine], for which, in assay [1], the inhibition at 10 µM stood at 5%. For the same compound, the activity at 10 µM in assay [2] came to 98.2%; in assay [3], 104%. The “cell growth inhibition, in words” value in assay [3] was “nor the piperazines (8a, 8d, 8f, 8g, 8h and 8i) showed any significant cell line growth inhibition”.

As to `CCOC(=O)N1CCN(c2nnc(C)c3ccccc23)CC1` [Compound 8f, Ethyl 4–(4-methylphthalazin-1-yl)piperazine-1-carboxylate], the inhibition at 10 µM in assay [1] is 14%. The figures for the activity at 10 µM in assay [2] and in assay [3] were 96% and 101%, respectively. The “cell growth inhibition, in words” value in assay [3] is “nor the piperazines (8a, 8d, 8f, 8g, 8h and 8i) showed any significant cell line growth inhibition”.

`Cc1nnc(N2CCN(c3ccccc3)CC2)c2ccccc12` [Compound 8g, 1-Methyl-4–(4-phenylpiperazin-1-yl)phthalazine]: the inhibition at 10 µM in assay [1] is 13%. In addition, the activity at 10 µM in assay [2] amounted to 98.3%. Moreover, in assay [3], the activity at 10 µM is 102%; the “cell growth inhibition, in words” value is “nor the piperazines (8a, 8d, 8f, 8g, 8h and 8i) showed any significant cell line growth inhibition”.

Take `Cc1nnc(N2CCN(c3ccccc3F)CC2)c2ccccc12` [Compound 8h, 1–(4-(2-Fluorophenyl)piperazin-1-yl)-4-methylphthalazine]: the inhibition at 10 µM in assay [1] came out at 9%. In assay [2], the activity at 10 µM amounted to 90%. In assay [3], the activity at 10 µM was 99%; the “cell growth inhibition, in words” value is “nor the piperazines (8a, 8d, 8f, 8g, 8h and 8i) showed any significant cell line growth inhibition”.
